# Earlier results in patent publication US20090263481A1, “LEVETIRACETAM FORMULATIONS” (priority 2008, published 2009).
# Read-outs that look alike come from different tables or passages of the source.
# Key:
# [1] = not given; remark: listed apart in the source
compound,measurement,setting,value
"CC[C@@H](C(N)=O)N1CCCC1=O [Levetiracetam, (−)-(S)-α-ethyl-2-oxo-1-pyrrolidine acetamide]",bound to plasma proteins,plasma proteins,less than 10%
same,solubility (descriptive),acetonitrile,sparingly soluble
same,solubility (descriptive),chloroform,freely soluble
same,solubility (descriptive),ethanol,soluble
same,solubility (descriptive),methanol,freely soluble
same,solubility (descriptive),n-hexane,practically insoluble
same,aqueous solubility,water,104 g/100 mL
same,solubility (descriptive),water,very soluble
same,dose range over which pharmacokinetics are linear,[1]; in vivo,500 to 5000 mg
same,absorption after oral administration (descriptive),[1]; oral administration,rapidly and almost completely absorbed
same,time of peak plasma concentrations,[1]; oral administration to fasted subjects,one
same,decrease of Cmax by food,"[1]; oral, with food",20%
same,time to steady state,[1]; twice-daily dosing,2 days
